Series [1] concerns the target T1, Histone acetyltransferase p300 (Homo sapiens, UniProt Q09472). The series is described as follows: Inhibition of P300 (unknown origin) using histone H3/[acetyl-3H]-acetyl coenzyme A as substrate at 100 uM.
Series [2] addresses T1, Histone acetyltransferase p300. The series is described as follows: Binding affinity to human recombinant P300 catalytic domain by SPR analysis.
Series [3] is described as follows: Stability of the compound in PBS at 25 degC after 2 mins to 24 hrs by HPLC analysis. The series is classed as physicochemical. The conditions noted are these: buffer.
For series [4], the target named is T2, Histone acetyltransferase KAT2B (Homo sapiens, UniProt Q92831). The experiment in a line: Inhibition of PCAF (unknown origin) using histone H3/[acetyl-3H]-acetyl coenzyme A as substrate at 100 uM.
Target sequence in this assay (Q92831 whole entry, looked up): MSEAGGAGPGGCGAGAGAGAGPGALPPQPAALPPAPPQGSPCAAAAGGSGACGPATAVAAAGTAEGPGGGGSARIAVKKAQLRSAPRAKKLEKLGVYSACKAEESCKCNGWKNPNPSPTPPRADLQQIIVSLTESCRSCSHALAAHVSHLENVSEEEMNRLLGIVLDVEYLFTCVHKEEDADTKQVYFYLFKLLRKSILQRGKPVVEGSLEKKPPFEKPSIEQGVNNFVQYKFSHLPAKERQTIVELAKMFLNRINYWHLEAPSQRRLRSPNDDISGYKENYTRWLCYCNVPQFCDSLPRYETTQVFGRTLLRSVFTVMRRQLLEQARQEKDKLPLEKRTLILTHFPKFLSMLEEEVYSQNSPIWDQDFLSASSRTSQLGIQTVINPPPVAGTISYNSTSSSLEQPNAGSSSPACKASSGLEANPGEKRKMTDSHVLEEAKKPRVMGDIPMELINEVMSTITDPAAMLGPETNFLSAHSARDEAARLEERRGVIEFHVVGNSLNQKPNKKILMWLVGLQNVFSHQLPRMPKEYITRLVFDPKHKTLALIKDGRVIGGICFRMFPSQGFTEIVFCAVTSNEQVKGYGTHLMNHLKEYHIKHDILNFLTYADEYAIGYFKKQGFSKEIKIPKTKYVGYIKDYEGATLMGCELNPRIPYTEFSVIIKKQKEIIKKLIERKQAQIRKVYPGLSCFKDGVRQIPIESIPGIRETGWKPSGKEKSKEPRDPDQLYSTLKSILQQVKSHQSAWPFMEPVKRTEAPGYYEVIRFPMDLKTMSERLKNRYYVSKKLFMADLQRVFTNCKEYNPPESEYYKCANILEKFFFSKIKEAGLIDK
The nature of series [5]: Stability of the compound in organic solvent assessed as hydrolysis after 10 mins to 24 hrs by HPLC analysis. The series is classed as physicochemical.
Series [6] is described as follows: Stability of the compound in aqueous medium assessed as hydrolysis after 10 mins to 24 hrs by HPLC analysis. In kind it is physicochemical. The following applies: buffer.
The nature of series [7]: Stability of the compound in aqueous medium assessed as hydrolysis after 30 mins by HPLC analysis. In kind it is physicochemical. The following applies: buffer, 0.5 h.
Series [8] deals with T1, Histone acetyltransferase p300. The series is described as follows: Inhibition of P300 (unknown origin) using histone H3/[acetyl-3H]-acetyl coenzyme A as substrate.
Series [9] can be described thus: Apparent permeability of the compound at RT after 24 hrs by PAMPA. In kind it is physicochemical. (The PAMPA barrier holds no transporters, so it reflects passive diffusion.)
In series [10] the target is T2, Histone acetyltransferase KAT2B. The series is described as follows: Inhibition of PCAF (unknown origin) using histone H3/[acetyl-3H]-acetyl coenzyme A as substrate at 10 uM.
Target sequence in this assay (Q92831 whole entry, looked up): as above
For series [11] the target is unchanged. The series is described as follows: Inhibition of PCAF (unknown origin) using histone H3/[acetyl-3H]-acetyl coenzyme A as substrate.
Target sequence in this assay (Q92831 whole entry): as the sequence (Q92831 whole entry, looked up) above
The target of series [12] is T1, Histone acetyltransferase p300. The following applies: 10 uM.
Description: Inhibition of P300 (unknown origin) using histone H3/[acetyl-3H]-acetyl coenzyme A as substrate at 10 uM
For series [13] the target is unchanged. The series is described as follows: Inhibition of P300 in […] at 30 uM up to 40 mins by Histac FRET analysis. In kind it is cell-based. The conditions noted are these: COS-7.

Molecules are shown by their SMILES. pIC50, pKd: −log10 of the molar value. Calls of active or inactive are those of the source. No cut-off for these calls is given here. Bounds are passed on as bounds.

One may read the inhibition as the relative decrease from the control value, in per cent. As usually defined, the pKd is the Kd on a negative log10 scale, so that one unit is a factor of ten. By pIC50 is commonly meant the negative decadic logarithm of the IC50, by convention in mol/L. Low values mean a high IC50, high ones a low IC50. A word on the Papp: it is the rate of passage across a membrane or cell layer, normalised by area and donor concentration.

T1 sequence (Q09472 whole entry, the tested form may be a part): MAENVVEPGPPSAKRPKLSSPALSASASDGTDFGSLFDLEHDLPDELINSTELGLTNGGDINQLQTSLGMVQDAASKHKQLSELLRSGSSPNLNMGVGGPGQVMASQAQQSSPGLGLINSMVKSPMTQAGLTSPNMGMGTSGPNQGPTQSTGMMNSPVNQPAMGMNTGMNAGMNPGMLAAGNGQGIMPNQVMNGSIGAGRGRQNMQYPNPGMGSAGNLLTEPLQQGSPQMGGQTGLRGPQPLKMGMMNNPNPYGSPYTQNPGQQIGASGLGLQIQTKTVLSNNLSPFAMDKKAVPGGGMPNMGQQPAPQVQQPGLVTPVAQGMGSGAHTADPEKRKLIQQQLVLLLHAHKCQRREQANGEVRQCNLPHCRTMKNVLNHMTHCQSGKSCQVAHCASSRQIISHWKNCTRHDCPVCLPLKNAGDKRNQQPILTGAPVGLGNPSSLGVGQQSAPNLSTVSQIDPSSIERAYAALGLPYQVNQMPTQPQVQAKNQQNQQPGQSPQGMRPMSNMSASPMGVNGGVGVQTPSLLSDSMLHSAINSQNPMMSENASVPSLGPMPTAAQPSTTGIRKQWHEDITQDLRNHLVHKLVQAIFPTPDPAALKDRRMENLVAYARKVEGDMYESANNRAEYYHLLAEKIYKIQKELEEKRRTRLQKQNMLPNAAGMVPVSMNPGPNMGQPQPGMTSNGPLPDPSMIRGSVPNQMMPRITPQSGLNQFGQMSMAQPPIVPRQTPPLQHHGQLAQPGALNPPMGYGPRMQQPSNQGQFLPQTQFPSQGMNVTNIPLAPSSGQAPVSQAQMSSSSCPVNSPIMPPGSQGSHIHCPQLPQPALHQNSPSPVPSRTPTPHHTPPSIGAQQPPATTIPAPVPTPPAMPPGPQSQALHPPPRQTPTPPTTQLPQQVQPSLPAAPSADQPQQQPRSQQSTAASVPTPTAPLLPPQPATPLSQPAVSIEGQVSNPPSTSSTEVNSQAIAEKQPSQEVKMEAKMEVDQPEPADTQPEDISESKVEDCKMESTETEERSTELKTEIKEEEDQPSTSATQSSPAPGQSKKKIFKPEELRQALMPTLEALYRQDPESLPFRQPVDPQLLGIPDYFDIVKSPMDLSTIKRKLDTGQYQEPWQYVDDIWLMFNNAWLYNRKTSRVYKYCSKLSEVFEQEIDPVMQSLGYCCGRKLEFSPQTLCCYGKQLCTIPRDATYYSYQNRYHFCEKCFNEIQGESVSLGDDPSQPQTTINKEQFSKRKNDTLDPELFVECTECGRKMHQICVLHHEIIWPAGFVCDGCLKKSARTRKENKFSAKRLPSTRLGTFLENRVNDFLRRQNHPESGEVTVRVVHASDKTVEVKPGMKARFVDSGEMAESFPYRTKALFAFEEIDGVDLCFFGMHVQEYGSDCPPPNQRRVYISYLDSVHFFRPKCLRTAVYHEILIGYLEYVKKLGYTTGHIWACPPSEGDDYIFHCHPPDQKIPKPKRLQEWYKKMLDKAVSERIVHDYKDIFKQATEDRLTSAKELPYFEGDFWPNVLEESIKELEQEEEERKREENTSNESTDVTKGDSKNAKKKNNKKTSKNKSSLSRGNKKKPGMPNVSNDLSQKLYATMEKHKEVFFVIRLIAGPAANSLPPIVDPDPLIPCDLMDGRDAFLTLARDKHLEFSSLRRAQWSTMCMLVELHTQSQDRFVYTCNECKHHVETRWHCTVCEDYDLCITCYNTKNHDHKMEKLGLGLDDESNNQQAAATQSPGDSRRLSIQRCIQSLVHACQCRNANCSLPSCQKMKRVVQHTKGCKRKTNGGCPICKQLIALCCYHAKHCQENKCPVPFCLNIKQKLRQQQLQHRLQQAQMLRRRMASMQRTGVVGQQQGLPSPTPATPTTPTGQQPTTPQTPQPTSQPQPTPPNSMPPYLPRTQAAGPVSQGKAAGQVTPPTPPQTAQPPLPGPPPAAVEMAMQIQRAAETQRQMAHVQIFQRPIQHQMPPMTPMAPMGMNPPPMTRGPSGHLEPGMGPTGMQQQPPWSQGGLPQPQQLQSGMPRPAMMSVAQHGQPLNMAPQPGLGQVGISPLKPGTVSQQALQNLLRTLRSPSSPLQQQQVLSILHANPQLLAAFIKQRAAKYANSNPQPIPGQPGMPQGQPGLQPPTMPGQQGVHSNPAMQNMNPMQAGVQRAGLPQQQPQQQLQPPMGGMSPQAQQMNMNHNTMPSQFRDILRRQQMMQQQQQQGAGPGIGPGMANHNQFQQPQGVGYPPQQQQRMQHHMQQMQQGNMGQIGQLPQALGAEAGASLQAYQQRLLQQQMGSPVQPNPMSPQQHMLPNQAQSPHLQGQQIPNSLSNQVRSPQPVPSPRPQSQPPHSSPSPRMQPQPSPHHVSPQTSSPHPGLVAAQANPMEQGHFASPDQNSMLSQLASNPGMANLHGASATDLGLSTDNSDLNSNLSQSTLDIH

`O=C(c1ccccc1)C1C(=O)N(Cc2ccccc2)C(=O)N(Cc2ccccc2)C1=O`: in series [1], the inhibition is 84.8%. In addition, the pKd in series [2] is 5.62. Besides, the Stability result in series [3] was “Stable”.
With `C=CCN1C(=O)C(Cc2ccccc2)C(=O)N(CC=C)C1=O`, the inhibition in series [1] amounted to 28.9%.
As to `C=CCN1C(=O)C(C(=O)c2ccc(O)cc2)C(=O)N(CC=C)C1=O`, the inhibition in series [4] was -2.7%; in series [1], 19.1%.
For the compound `CC(C)CN1C(=O)C(Cc2ccc(O)c(O)c2)C(=O)N(CC(C)C)C1=O`, in series [1], the inhibition is 24.3%.
On the same count and under the same terms, under `C=CCN1C(=O)C(Cc2ccc(O)c(O)c2)C(=O)N(CC=C)C1=O` stands 1.1%.
Regarding `COc1ccc(C=C2C(=O)N(Cc3ccccc3)C(=O)N(Cc3ccccc3)C2=O)cc1O`, the Stability result in series [5] is recorded as “Stable”; in series [6], “Unstable”; in series [7] it was “Unstable”. In addition, the inhibition in [1] came to 97.3%. In [8], this compound had a pIC50 of 5.23.
Regarding `CC(C)NCC(O)COc1cccc2ccccc12` (stereo not drawn) [PROPRANOLOL], in series [9], the apparent permeability (Papp) at 24 h worked out at 4.1 ×10⁻⁶ cm/s.
Consider `CCCCCCCCCCCCCCCc1cccc(O)c1C(=O)O` [ANACARDIC ACID], for which the inhibition in series [4] was 3.6%; in series [10] it was under 10%. For the same compound, the pIC50 in series [11] is 4.47.
In the case of `O=C1C(Cc2ccc(O)c(O)c2)C(=O)N(Cc2ccccc2)C(=O)N1Cc1ccccc1`, the inhibition in [1] was determined as 59.9%.
Same read-out and setting: the same measure for `CC(C)CN1C(=O)C(Cc2ccccc2)C(=O)N(CC(C)C)C1=O`: 23.1%.
With `COc1ccc(C=C2C(=O)N(Cc3ccccc3)C(=O)N(Cc3ccccc3)C2=O)cc1`, the inhibition in [4] was -8.2%; in series [1], 93.6%. The Stability entry is recorded as “Stable” in series [5] and “Unstable” in [6]. The pIC50 in series [8] is 5.10.
On to `C=CCN1C(=O)C(C(=O)c2ccccc2)C(=O)N(CC=C)C1=O`, for which, in [1], the inhibition came out at 28.1%.
For `COc1cc(C=C2C(=O)N(Cc3ccccc3)C(=O)N(Cc3ccccc3)C2=O)ccc1O`, the Stability entry in series [5] is recorded as “Stable”; in series [6], “Unstable”; in [7], “Unstable”. The inhibition in series [1] turned out to be 97.1%. In [8], the pIC50 is 5.82.
Regarding `CC(C)CN1C(=O)C(C(=O)c2ccc(O)cc2)C(=O)N(CC(C)C)C1=O`, the inhibition in series [4] turned out to be 19.3%; in series [1] it was 39.7%.
Take `COc1ccc(C=C2C(=O)N(CC(C)C)C(=O)N(CC(C)C)C2=O)cc1`: the inhibition in series [4] was determined as 3.6%; in [1] it was 53.8%. Further, the Stability result in [5] was “Stable”; in series [6], “Unstable”.
Consider `C=CCN1C(=O)C(=Cc2ccc(O)c(OC)c2)C(=O)N(CC=C)C1=O`, for which the figures for the inhibition in series [4] and in series [1] were 5.1% and 67.3%, respectively. Further, the Stability result in [5] is “Stable”; in [6], “Unstable”. This compound gave a pIC50 in [8] of 4.58.
For `COc1cc(C=C2C(=O)N(CC(C)C)C(=O)N(CC(C)C)C2=O)ccc1O` the same measures were 9.3%, 96.4%, “Stable”, “Unstable” and 5.38.
`O=C1C(Cc2ccccc2)C(=O)N(Cc2ccccc2)C(=O)N1Cc1ccccc1`: the inhibition in series [1] came out at 83.9%. In addition, the negative-log Kd (pKd) in series [2] was 6.96. The Stability result in [3] was “Stable”.
Take `CC(C)CN1C(=O)C(=Cc2ccc(O)c(O)c2)C(=O)N(CC(C)C)C1=O`: the results for the Stability entry in series [5] and in series [6] were “Stable” and “Unstable”, respectively. Further, the inhibition in [1] stood at 91.8%. The same compound gave a pIC50 in series [8] of 5.27.
In the case of `CC(C)CN1C(=O)C(C(=O)c2ccc(O)c(O)c2)C(=O)N(CC(C)C)C1=O`, the inhibition in series [4] came out at 3.4%; in series [1], 8.4%.
For `CC(C)CN1C(=O)C(Cc2ccc(O)cc2)C(=O)N(CC(C)C)C1=O` the same measures were 5% and 64.6%.
For `C=CCN1C(=O)C(Cc2ccc(O)cc2)C(=O)N(CC=C)C1=O`, in that order: -7.5% and 23.7%.
As for `C=CCN1C(=O)C(=Cc2ccc(OC)cc2)C(=O)N(CC=C)C1=O`, the inhibition in [4] turned out to be 11.7%; in [1] it was 59.9%. The figures for the Stability entry in series [5] and in [6] were “Stable” and “Unstable”, respectively.
As for `O=C(c1ccc(O)cc1)C1C(=O)N(Cc2ccccc2)C(=O)N(Cc2ccccc2)C1=O`, the inhibition in series [1] amounted to 54.4%.
With `COc1ccc(C=C2C(=O)N(Cc3ccccc3)C(=O)N(Cc3ccccc3)C2=O)cc1OC`, the values for the Stability entry in [5] and in series [6] were “Stable” and “Unstable”, respectively. The inhibition in [1] stood at 88.2%. Also, in [8], the pIC50 was 4.94.
As to `COc1ccc(C=C2C(=O)N(CC(C)C)C(=O)N(CC(C)C)C2=O)cc1OC`, the inhibition in series [4] came to 9.2%; in series [1], 45.8%. Besides, the Stability entry was “Stable” in series [5] and “Unstable” in series [6].
For `C=CCN1C(=O)C(=Cc2ccc(OC)c(OC)c2)C(=O)N(CC=C)C1=O` the same measures were 6.6%, 31.1%, “Stable” and “Unstable”.
For the compound `CC1=NN(c2ccc(C(=O)O)cc2)C(=O)/C1=C\Cc1ccc(Cc2cc(C)c(C)cc2[N+](=O)[O-])o1`, in [12], the inhibition came to 86%. In series [8], this compound had a pIC50 of 5.80.
For the compound `CC(C)CN1C(=O)C(C(=O)c2ccccc2)C(=O)N(CC(C)C)C1=O`, in series [1], the inhibition came out at 34.1%.
As for `O=C1C(=Cc2ccc(O)cc2)C(=O)N(Cc2ccccc2)C(=O)N1Cc1ccccc1`, the figures for the inhibition in [4] and in series [1] were -0.6% and 99.2%, respectively. Besides, the inhibition result in series [13] is “Active”. Besides, the results for the Stability entry in series [5], in series [6] and in series [7] were “Stable”, “Unstable” and “Unstable”, respectively. The same compound had a negative logarithm of the IC50 (pIC50) in series [8] of 5.68.
Regarding `C=CCN1C(=O)C(=Cc2ccc(OC)c(O)c2)C(=O)N(CC=C)C1=O`, the inhibition in [4] came to 3%; in series [1] it was 49.5%. Besides, the Stability entry in series [5] was “Stable”; in [6], “Unstable”.
`C=CCN1C(=O)C(C(=O)c2ccc(O)c(O)c2)C(=O)N(CC=C)C1=O`: the figures for the inhibition in series [4] and in [1] were 3.6% and 4.9%, respectively.
`O=C1C(=Cc2ccccc2)C(=O)N(Cc2ccccc2)C(=O)N1Cc1ccccc1`: the figures for the Stability result in series [5] and in series [6] were “Stable” and “Unstable”, respectively.
In the case of `COc1ccc(C=C2C(=O)N(CC(C)C)C(=O)N(CC(C)C)C2=O)cc1O`, the inhibition in [4] came out at 10.6%; in series [1], 84.7%. Further, the Stability entry in series [5] was “Stable”; in series [6], “Unstable”. For the same compound, in series [8], the negative-log IC50 (pIC50) is 4.50.
As for `C=CCN1C(=O)C(=Cc2ccc(O)c(O)c2)C(=O)N(CC=C)C1=O`, the values for the inhibition in series [4] and in [1] were 3.3% and 61.6%, respectively. In addition, the results for the Stability result in [5] and in series [6] were “Stable” and “Unstable”, respectively.
Consider `CC(C)CN1C(=O)C(=Cc2ccccc2)C(=O)N(CC(C)C)C1=O`, for which the Stability result is reported as “Stable” in series [5] and “Unstable” in series [6].
On to `O=C1C(=Cc2ccc(O)c(O)c2)C(=O)N(Cc2ccccc2)C(=O)N1Cc1ccccc1`, for which the inhibition is -2.3% in series [4] and 96.2% in series [1]. The values for the Stability entry in series [5], in [6] and in series [7] were “Stable”, “Unstable” and “Unstable”, respectively. The pIC50 in series [8] is 5.80.
Regarding `C=CCN1C(=O)C(=Cc2ccc(O)cc2)C(=O)N(CC=C)C1=O`, the inhibition came out at 3.1% in [4] and 64.7% in series [1]. Besides, the Stability result was “Stable” in [5] and “Unstable” in series [6].
Regarding `C=CCN1C(=O)C(=Cc2ccccc2)C(=O)N(CC=C)C1=O`, the Stability result in [5] is “Stable”; in series [6], “Unstable”.
For `CC(C)CN1C(=O)C(=Cc2ccc(O)cc2)C(=O)N(CC(C)C)C1=O`, the Stability entry is “Stable” in series [5] and “Unstable” in [6]. In series [1], the inhibition turned out to be 94%. In addition, in [8], the pIC50 is 5.07.
Regarding `O=C(c1ccc(O)c(O)c1)C1C(=O)N(Cc2ccccc2)C(=O)N(Cc2ccccc2)C1=O`, the inhibition in series [1] worked out at 48.2%.
Same read-out and setting: under `O=C1C(Cc2ccc(O)cc2)C(=O)N(Cc2ccccc2)C(=O)N1Cc1ccccc1` stands 60.3%.

For the origin of these results see ChEMBL document CHEMBL3421539, “A novel cell-permeable, selective, and noncompetitive inhibitor of KAT3 histone acetyltransferases from a combined molecular pruning/classical isosterism approach” (J Med Chem, 2015).
